Test results taken from ChEMBL document CHEMBL1156251, “Structure--activity relationships of polymyxin antibiotics” (J Med Chem, 2010).
In brackets after ≈: the same amount, converted by molar mass. Several values for one entry are separate records, joined by “and”; a condition that tells them apart may be missing. Equal entries are not always repeated. *1 amine or outer side, *2 acyl side, *3 side chain or, on linkers, in order; H or OH if unused. Where a SMILES comes first, the peptide text is derived from it. Bridges are numbered along the chain shown (N, C = ends). [ ]: non-standard residue; d: D form. The star is where a group is joined. X1 = NC(=O)[C@@H](CS[*:2])C(=O)[*:1]; X2 = CC[C@H](C)[C@H](NO*)C(=O)O; Octanoyl = CCCCCCCC(=O)*; Dab = NCC[C@H](N)C(=O)O

Columns and labels:
[1] = tested on: Escherichia coli; test: Antimicrobial activity against Escherichia coli; format: functional
[2] = tested on: Salmonella enterica; test: Antimicrobial activity against Salmonella enterica; format: functional
[3] = tested on: Pseudomonas aeruginosa; test: Antimicrobial activity against Pseudomonas aeruginosa; format: functional, organism-based
[4] = target: Lipopolysaccharide (LPS); test: Displacement of dansyl-PMB from LPS by isothermal titration calorimetry

Structure (SMILES) | MIC [1] | MIC [2] | MIC [3] [µM] | IC50 [4] | Ka [4]
CCCCCCCC(=O)N[C@@H](CCN)C(=O)N[C@H](C(=O)N[C@@H](CCN)C(=O)N[C@H]1CCNC(=O)[C@H]([C@@H](C)O)NC(=O)[C@H](CCN)NC(=O)[C@H](CCN)NC(=O)[C@H](CC(C)C)NC(=O)[C@@H](C)NC(=O)[C@H](CCN)NC1=O)[C@@H](C)O | 1 µM (≈ 1.11 µg/mL) | 1 µM | 1 (≈ 1.11 µg/mL) | 6 µM | 
CCCCCCCC(=O)N[C@@H](CCN)C(=O)N[C@H](C(=O)N[C@@H](CCN)C(=O)N[C@H]1CCNC(=O)[C@H]([C@@H](C)O)NC(=O)[C@H](CCN)NC(=O)[C@H](CCN)NC(=O)[C@H](C)NC(=O)[C@@H](Cc2ccccc2)NC(=O)[C@H](CCN)NC1=O)[C@@H](C)O | 1 µM (≈ 1.15 µg/mL) | 1 µM | 1 (≈ 1.15 µg/mL) | 5 µM | 
CCCCCCCC(=O)N[C@@H](CCN)C(=O)N[C@H](C(=O)N[C@@H](CCN)C(=O)N[C@H]1CCNC(=O)[C@H]([C@@H](C)O)NC(=O)[C@H](CCN)NC(=O)[C@H](CCN)NC(=O)[C@H](C)NC(=O)[C@@H](C)NC(=O)[C@H](CCN)NC1=O)[C@@H](C)O | 2 µM (≈ 2.14 µg/mL) | 32 µM | 4 (≈ 4.29 µg/mL) | 8 µM | 
CCCCCCCC(=O)N[C@@H](CCN)C(=O)N[C@H](C(=O)N[C@@H](CCN)C(=O)N[C@H]1CCNC(=O)[C@H]([C@@H](C)O)NC(=O)[C@H](CCN)NC(=O)[C@H](CCN)NC(=O)CNC(=O)[C@@H](Cc2ccccc2)NC(=O)[C@H](CCN)NC1=O)[C@@H](C)O | 1 µM (≈ 1.13 µg/mL) | 2 µM | 2 (≈ 2.27 µg/mL) | 11 µM | 
CCCCCCCC(=O)N[C@@H](CCN)C(=O)N[C@H](C(=O)N[C@@H](CCN)C(=O)N[C@H]1CCNC(=O)[C@H]([C@@H](C)O)NC(=O)[C@H](CCN)NC(=O)[C@H](CCN)NC(=O)[C@H](Cc2c[nH]c3ccccc23)NC(=O)[C@@H](Cc2ccccc2)NC(=O)[C@H](CCN)NC1=O)[C@@H](C)O | 2 µM (≈ 2.53 µg/mL) | 2 µM | 2 (≈ 2.53 µg/mL) | 5 µM | 
CCCCCCCC(=O)N[C@H]1CCNC(=O)[C@H]([C@@H](C)O)NC(=O)[C@H](CCN)NC(=O)[C@H](CCN)NC(=O)[C@H](CC(C)C)NC(=O)[C@@H](Cc2ccccc2)NC(=O)[C@H](CCN)NC1=O | 128 µM (≈ 114 µg/mL) | 128 µM | 128 (≈ 114 µg/mL) | 30 µM | 
CCCCCCCC(=O)N[C@@H](CCN)C(=O)N[C@H]1CCNC(=O)[C@H]([C@@H](C)O)NC(=O)[C@H](CCN)NC(=O)[C@H](CCN)NC(=O)[C@H](CC(C)C)NC(=O)[C@@H](Cc2ccccc2)NC(=O)[C@H](CCN)NC1=O | 16 µM (≈ 15.8 µg/mL) | 16 µM | 8 (≈ 7.91 µg/mL) | 14 µM | 
CC[C@H](C)[C@H](NOC(=O)[C@H](CCCCN)NC(=O)CNC(=O)[C@@H](NC(=O)[C@H](CCCCN)NC(=O)[C@@H]1CSSC[C@H](C(N)=O)C(=O)N[C@@H](CCCCN)C(=O)N[C@@H](Cc2ccccc2)C(=O)N[C@@H](CC(C)C)C(=O)N[C@@H](CCCCN)C(=O)N[C@@H](CCCCN)C(=O)N1)[C@@H](C)O)C(=O)O (KFLKKCKTGK-X2; linker N-6 via X1) |  | > 1000 µg/mL |  |  | 0.29 10^7/M
CCCCCCCC(=O)N[C@@H](CCN)C(=O)N[C@H](C(=O)N[C@@H](CCN)C(=O)N[C@H]1CCNC(=O)[C@H]([C@@H](C)O)NC(=O)[C@H](CCN)NC(=O)[C@H](CCN)NC(=O)CNC(=O)CNC(=O)[C@H](CCN)NC1=O)[C@@H](C)O (Octanoyl-[Dab]T[Dab][Dab][Dab]GG[Dab][Dab]T; lactam 4-C) | 256 µM (≈ 267 µg/mL) | ≥ 512 µM | ≥ 512 | 20 µM | 
CCCCCCCC(=O)N[C@@H](CCN)C(=O)N[C@H](C(=O)N[C@@H](CCN)C(=O)N[C@H]1CCNC(=O)[C@H]([C@@H](C)O)NC(=O)[C@H](CCN)NC(=O)[C@H](CCN)NC(=O)[C@H](CC(C)C)NC(=O)CNC(=O)[C@H](CCN)NC1=O)[C@@H](C)O (Octanoyl-[Dab]T[Dab][Dab][Dab]GL[Dab][Dab]T; lactam 4-C) | 2 µM (≈ 2.2 µg/mL) | 16 µM | 1 (≈ 1.1 µg/mL) | 11 µM | 
CCCCCCCC(=O)N[C@@H](CCN)C(=O)N[C@H](C(=O)N[C@@H](CCN)C(=O)N[C@H]1CCNC(=O)[C@H](C)NC(=O)[C@H](CCN)NC(=O)[C@H](CCN)NC(=O)[C@H](CC(C)C)NC(=O)[C@@H](Cc2ccccc2)NC(=O)[C@H](CCN)NC1=O)[C@@H](C)O (Octanoyl-[Dab]T[Dab][Dab][Dab][dF]L[Dab][Dab]A; lactam 4-C) | 2 µM (≈ 2.32 µg/mL) | 1 µM | 1 (≈ 1.16 µg/mL) | 5 µM | 
CCCCCCCC(=O)N[C@@H](CCN)C(=O)N[C@H](C(=O)N[C@@H](CCN)C(=O)N[C@H]1CCNC(=O)[C@H]([C@@H](C)O)NC(=O)[C@H](CCN)NC(=O)[C@H](CCN)NC(=O)[C@H](CC(C)C)NC(=O)C(Cc2c[nH]c3ccccc23)NC(=O)[C@H](CCN)NC1=O)[C@@H](C)O (stereo in doubt) | 2 µM (≈ 2.46 µg/mL) | 2 µM | 2 (≈ 2.46 µg/mL) | 6 µM | 
CC(C)C[C@@H]1NC(=O)[C@@H](Cc2ccccc2)NC(=O)[C@H](CCN)NC(=O)[C@@H](NC(=O)[C@H](CCN)NC(=O)[C@@H](NC(=O)[C@H](CCCNC(=N)N)NC(=O)[C@@H](CCCNC(=N)N)NC(=O)[C@@H](N)CCCNC(=N)N)[C@@H](C)O)CCNC(=O)[C@H]([C@@H](C)O)NC(=O)[C@H](CCN)NC(=O)[C@H](CCN)NC1=O [DESFA-[ARG-ARG-ARG1]POLYMYXIN B] | 16 µM (≈ 22.9 µg/mL) | 64 µM | 1 (≈ 1.43 µg/mL) | 3 µM | 

Next, values leading:

MIC [1] | MIC [2] | MIC [3] [µM] | IC50 [4] | Ka [4] | Structure (SMILES)
2 µM (≈ 2.46 µg/mL) | 4 µM | 2 (≈ 2.46 µg/mL) | 26 µM |  | CCCCCCCC(=O)N[C@@H](CCN)C(=O)N[C@H](C(=O)N[C@@H](CCN)C(=O)N[C@H]1CCNC(=O)[C@H]([C@@H](C)O)NC(=O)[C@H](CCN)NC(=O)[C@H](CCNC(C)=O)NC(=O)[C@H](CC(C)C)NC(=O)[C@@H](Cc2ccccc2)NC(=O)[C@H](CCN)NC1=O)[C@@H](C)O
2 µM (≈ 2.38 µg/mL) | 2 µM | 2 (≈ 2.38 µg/mL) | 10 µM |  | CCCCCCCC(=O)N[C@@H](CCN)C(=O)N[C@H](C(=O)N[C@@H](CCN)C(=O)N[C@H]1CCNC(=O)[C@H]([C@@H](C)O)NC(=O)[C@H](CCN)NC(=O)[C@H](CCN)NC(=O)[C@H](CC(C)C)NC(=O)[C@H](Cc2ccccc2)NC(=O)[C@H](CCN)NC1=O)[C@@H](C)O
4 µM (≈ 4.64 µg/mL) | 4 µM | 2 (≈ 2.32 µg/mL) | 19 µM |  | CCCCCCCC(=O)N[C@@H](CCN)C(=O)N[C@H](C(=O)N[C@@H](CCN)C(=O)N[C@H]1CCNC(=O)[C@H]([C@@H](C)O)NC(=O)[C@H](C)NC(=O)[C@H](CCN)NC(=O)[C@H](CC(C)C)NC(=O)[C@@H](Cc2ccccc2)NC(=O)[C@H](CCN)NC1=O)[C@@H](C)O (Octanoyl-[Dab]T[Dab][Dab][Dab][dF]L[Dab]AT; lactam 4-C)
2 µM (≈ 2.18 µg/mL) | 2 µM | 2 (≈ 2.18 µg/mL) | 12 µM |  | CCCCCCCC(=O)N[C@H](C(=O)N[C@@H](CCN)C(=O)N[C@H]1CCNC(=O)[C@H]([C@@H](C)O)NC(=O)[C@H](CCN)NC(=O)[C@H](CCN)NC(=O)[C@H](CC(C)C)NC(=O)[C@@H](Cc2ccccc2)NC(=O)[C@H](CCN)NC1=O)[C@@H](C)O (stereo in doubt; 231) [Octanoyl Polymixin B nonapeptide]
8 µM and 30 µg/mL | 16 µM | 4 (≈ 4.42 µg/mL) | 13 µM |  | CC(=O)N[C@@H](CCN)C(=O)N[C@H](C(=O)N[C@@H](CCN)C(=O)N[C@H]1CCNC(=O)[C@H]([C@@H](C)O)NC(=O)[C@H](CCN)NC(=O)[C@H](CCN)NC(=O)[C@H](CC(C)C)NC(=O)[C@@H](Cc2ccccc2)NC(=O)[C@H](CCN)NC1=O)[C@@H](C)O [DEACYL POLYMYXIN B] (Ac-[Dab]T[Dab][Dab][Dab][dF]L[Dab][Dab]T; lactam 4-C)
32 µM (≈ 34.5 µg/mL) | 64 µM | 32 (≈ 34.5 µg/mL) | >= 32 nmol/ml |  | CC(C)C[C@@H]1NC(=O)[C@@H](Cc2ccccc2)NC(=O)[C@H](CCN)NC(=O)[C@@H](NC(=O)[C@H](CCN)NC(=O)[C@@H](NC(=O)[C@H](C)NC(=O)O)[C@@H](C)O)CCNC(=O)[C@H]([C@@H](C)O)NC(=O)[C@H](CCN)NC(=O)[C@H](CCN)NC1=O [DESFA-[ALA1]POLYMYXIN B]
64 µM (≈ 75.3 µg/mL) | 128 µM | 128 (≈ 151 µg/mL) | >= 32 nmol/ml |  | CC(C)C[C@@H]1NC(=O)[C@@H](Cc2ccccc2)NC(=O)[C@H](CCN)NC(=O)[C@@H](NC(=O)[C@H](CCN)NC(=O)[C@@H](NC(=O)[C@H](C)NC(=O)[C@@H](C)NC(=O)[C@H](C)N)[C@@H](C)O)CCNC(=O)[C@H]([C@@H](C)O)NC(=O)[C@H](CCN)NC(=O)[C@H](CCN)NC1=O [DESFA-[ALA-ALA-ALA1]POLYMYXIN B]
8 µM (≈ 9.31 µg/mL) | 16 µM | 16 (≈ 18.6 µg/mL) | 15 µM |  | CC(C)C[C@@H]1NC(=O)[C@@H](Cc2ccccc2)NC(=O)[C@H](CCN)NC(=O)[C@@H](NC(=O)[C@H](CCN)NC(=O)[C@@H](NC(=O)[C@H](CCCNC(=N)N)NC(=O)O)[C@@H](C)O)CCNC(=O)[C@H]([C@@H](C)O)NC(=O)[C@H](CCN)NC(=O)[C@H](CCN)NC1=O [DESFA-[ARG1]POLYMYXIN B]
8 µM (≈ 8.86 µg/mL) | 16 µM | 4 (≈ 4.43 µg/mL) | 19 µM |  | CC(C)C[C@@H]1NC(=O)[C@@H](Cc2ccccc2)NC(=O)[C@H](CCN)NC(=O)[C@@H](NC(=O)[C@H](CCN)NC(=O)[C@@H](NC(=O)[C@H](CCN)NC(=O)O)[C@@H](C)O)CCNC(=O)[C@H]([C@@H](C)O)NC(=O)[C@H](CCN)NC(=O)[C@H](CCN)NC1=O [DESFA-[DAB1]POLYMYXIN B]
8 µM (≈ 10.1 µg/mL) | 32 µM | 0.5 (≈ 0.632 µg/mL) | 3 µM |  | CC(C)C[C@@H]1NC(=O)[C@@H](Cc2ccccc2)NC(=O)[C@H](CCN)NC(=O)[C@@H](NC(=O)[C@H](CCN)NC(=O)[C@@H](NC(=O)[C@H](CCN)NC(=O)[C@@H](CCN)NC(=O)[C@@H](N)CCN)[C@@H](C)O)CCNC(=O)[C@H]([C@@H](C)O)NC(=O)[C@H](CCN)NC(=O)[C@H](CCN)NC1=O [DESFA-[DAB-DAB-DAB1]POLYMYXIN B]
